In patent US5364882A, “Oxysulfonyl urea ACAT inhibitors” (Warner-Lambert Company, priority 1992, dated 1994):

Experiments:
[1] = APCC in vivo screen: blood cholesterol in rats on high fat, high cholesterol diet with 0.5% cholic acid; set-up: species or system male Sprague-Dawley rats; conditions: 30 mg/kg single dose at 4 PM, high cholesterol diet overnight, blood at 8 AM, vehicle CMC/Tween
Method: In one in vivo screen designated APCC, male Sprague-Dawley rats (200 to 225 g) were randomly divided into treatment groups and dosed at 4 PM with either vehicle (CMC/Tween) or suspensions of compounds in vehicle (30 mg/kg). The normal chow diet was then replaced with a high fat, high cholesterol diet with 0.5% cholic acid. The rats consumed this diet ad libitum during the night and were sacrificed at 8 AM to obtain blood samples for cholesterol analysis using standard procedures. Statistical differences between mean cholesterol values for the same vehicle were determined using analysis of variance followed by Fisher's least significant test.

[2] = target: T1, acyl-CoA: cholesterol acyltransferase (ACAT) (Oryctolagus cuniculus, UniProt G1SFD9); assay: In vitro ACAT inhibition (IAI): formation of radiolabeled cholesterol oleate from radiolabeled oleic acid in rabbit intestinal microsomes; assay type: biochemical; conditions: concentration required to inhibit enzyme activity by 50%
T1 sequence (G1SFD9 1-524): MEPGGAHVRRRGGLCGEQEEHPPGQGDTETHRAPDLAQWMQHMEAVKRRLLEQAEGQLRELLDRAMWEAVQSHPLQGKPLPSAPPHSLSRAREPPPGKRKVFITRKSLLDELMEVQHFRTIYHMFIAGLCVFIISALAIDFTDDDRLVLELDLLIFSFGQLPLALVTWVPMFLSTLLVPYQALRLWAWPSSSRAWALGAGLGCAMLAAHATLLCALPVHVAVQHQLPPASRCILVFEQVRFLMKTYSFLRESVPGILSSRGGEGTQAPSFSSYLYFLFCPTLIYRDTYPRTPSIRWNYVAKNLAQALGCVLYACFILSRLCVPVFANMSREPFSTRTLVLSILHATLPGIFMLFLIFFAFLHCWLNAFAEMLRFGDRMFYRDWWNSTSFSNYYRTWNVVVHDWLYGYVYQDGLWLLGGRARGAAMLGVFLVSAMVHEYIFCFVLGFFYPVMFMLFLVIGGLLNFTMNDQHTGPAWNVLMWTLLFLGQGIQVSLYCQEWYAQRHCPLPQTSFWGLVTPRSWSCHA
Method: The ability of representative compounds of the present invention to inhibit ACAT was measured using an in vitro test more fully described in F. J. Field and R. G. Salone, Biochemica et Biophysica 712:557-570 (1982). The test assesses the ability of a test compound to inhibit the acylation of cholesterol by oleic acid by measuring the amount of radiolabeled cholesterol oleate formed from radiolabeled oleic acid in a tissue preparation containing rabbit intestinal microsomes.

Row | Structure (SMILES) | % Change (mg/dl) in cholesterol [1] | IC50 [2]
1 | CCCCCCCCCCCCOS(=O)(=O)NC(=O)Nc1c(C(C)C)cccc1C(C)C.[Na] | -58% | –
2 | CCCCCCC(C)OS(=O)(=O)NC(=O)Nc1c(C(C)C)cccc1C(C)C (racemic) [Example 6, (±) 1-Methylheptyl [[[2,6-bis(1-methylethyl)phenyl]amino]carbonyl]sulfamate] | -43% | 8.7 µM
3 | CCCCCCCCCCC(C)OS(=O)(=O)NC(=O)Nc1c(C(C)C)cccc1C(C)C (racemic) [Example 8, (±) 1-Methylundecyl [[[2,6-bis(1-methylethyl)phenyl]amino]carbonyl]sulfamate] | -68% | –
4 | CCCCCCOS(=O)(=O)NC(=O)Nc1c(C(C)C)cccc1C(C)C [Example 1, Hexyl [[[2,6-bis(1-methylethyl)phenyl]amino]carbonyl]sulfamate] | -56% | –
5 | CCCCCCCCCCCCCCCCCCOS(=O)(=O)NC(=O)Nc1c(C(C)C)cccc1C(C)C [Example 2, Octadecyl [[[2,6-bis(1-methylethyl)phenyl]amino]carbonyl]sulfamate] | -42% | –
6 | CCCCCCCCCCCCOS(=O)(=O)NC(=O)Nc1c(C(C)C)cccc1C(C)C [Example 3, Dodecyl [[[2,6-bis(1-methylethyl)phenyl]amino]carbonyl]sulfamate] | -75% | –
7 | CCCCCCCCCCOS(=O)(=O)NC(=O)Nc1c(C(C)C)cccc1C(C)C [Example 5, Decyl [[[2,6-bis(1-methylethyl)phenyl]amino]carbonyl]sulfamate] | -31% | > 10 µM
8 | CC(C)c1cccc(C(C)C)c1NC(=O)NS(=O)(=O)Oc1c(C(C)C)cccc1C(C)C [Example 7, 2,6-bis(1-methylethyl)phenyl [[[2,6-bis (1-methylethyl)phenyl]amino]carbonyl]sulfamate] | -51% | 35 µM
